Literature values in patent US9512158B2, “Enhanced immunogenicity of tumor associated antigens by addition of alphagal epitopes” (NewLink Genetics Corp., priority 2006, dated 2016).

Experiments:
MHC-I H2-K^b = target: T1, MHC-I H2-K^b (Mus musculus, UniProt P01901); settings: compared with peptide #1 TWHRYHLL; cited from earlier work
T1 sequence (P01901 22-369): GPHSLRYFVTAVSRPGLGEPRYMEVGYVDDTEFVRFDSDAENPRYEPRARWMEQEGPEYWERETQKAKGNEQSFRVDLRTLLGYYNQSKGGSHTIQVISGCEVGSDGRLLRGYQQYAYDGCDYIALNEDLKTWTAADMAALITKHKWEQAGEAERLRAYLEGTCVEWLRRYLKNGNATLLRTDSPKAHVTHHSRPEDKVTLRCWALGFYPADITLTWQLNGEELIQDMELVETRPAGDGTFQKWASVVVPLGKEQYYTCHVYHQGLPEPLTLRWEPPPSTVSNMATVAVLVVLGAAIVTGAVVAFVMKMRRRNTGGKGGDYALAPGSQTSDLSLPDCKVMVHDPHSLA
T1 sequence (P01887 21-119 partner): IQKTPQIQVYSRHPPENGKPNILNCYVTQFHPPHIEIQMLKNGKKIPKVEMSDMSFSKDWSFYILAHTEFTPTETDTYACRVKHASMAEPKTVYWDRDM

B16 melanoma = settings: cited from earlier work
αGT knockout mice = settings: cited from earlier work

Substance | binding affinity to MHC-I H2-K^b (MHC-I H2-K^b) | protective immunity against B16 melanoma (B16 melanoma; C57Bl/6 mice (H-2K^b), in the presence of adjuvant) | immunogenicity (B16 melanoma; in the absence of adjuvant) | T cell response to BSA (αGT knockout mice; mouse, in vivo) | production of anti-BSA IgG antibodies (αGT knockout mice; without adjuvant)
TAYRYHLL | better binding affinity | induces protective immunity | not immunogenic | – | –
BSA conjugated with αGal: BSA conjugated with αGal | – | – | – | increase | significant production
